Data reported in patent EP0963755A2, “Use of benzopyranes for preventing allograft rejection” (Pfizer Products Inc., priority 1998, dated 1999).

Tested on: acute allograft rejection
Test: murine cardiac ear pinna model of acute allograft rejection (non-vascularized cardiac tissue transplantation)
Format: in vivo
Details: monotherapy; for Graft Survival, Mean ± Std Dev (mean survival days): day 0 to 17, BALB/C neonatal hearts into C3H/HeN ear pinna, assessed day 6 to 18
Excerpt: Methods: A rapid, facile 2-week murine bioassay of non-vascularized cardiac tissue transplantation,t he murine cardiac ear pinna model of acute allograft rejection, was used to evaluate the dose-response relationship of immunosuppressive drugs on allograft rejection. In this model, donor BALB/C (H2^d) neonatal hearts are transplanted into recipient C3H/HeN (H2^k) ear pinna pouches without vacular anastomoses. Survivinghearts are revascularized and usually resume beating on day 3 to 6. Untreated allografts failed prior to day 12 (MST = 10.5 + 0.9d, n=13). Isografts survived indefinitely. All compounds are given on day 0 to 17 COMPOUND P [(+)-2-[3,4-dihydro(3S,4R)-4-hydroxy-3-(4-phenyl-phenylmethyl)-7-(2H,1-benzopyran)]cyclopentane carboxylic acid] was given orally in 0.5% Methylcellulose. Grafts were assessed by visual examination for contraction on alternate days (from 6 to 18) and graft survival was defined as the post-transplant day on which contractions cease. Efficacy data from day 6 to 18 is presented as mean survival days (+SD) and was analyzed by Log Rank Analysis. Graft survival values were determined at day 18. Any graft surviving at day 18 was censored for statistical purposes.

With O=C(O)C1CCCC1c1ccc2c(c1)OC[C@H](Cc1ccc(-c3ccccc3)cc1)[C@H]2O (single isomer, unassigned; (+)) [COMPOUND P] the “efficacy as a single agent in acute rejection (graft survival on day 18)” value (highest dose, 300 mg/kg d) was “significant (p<0.01)”, the “efficacy as a single agent in acute rejection (graft survival on day 18)” value (lower doses tested (200, 100, and 30 mg/kg)) was “not at the lower doses tested” and the “Graft Survival, Mean ± Std Dev (mean survival days)” value (“Graft Survival, Mean ± Std Dev” below) (30 mg/kg/d orally in 0.5% Methylcellulose) was 11.0 ± 1.1 days. For the same molecule, the “Graft Survival, Mean ± Std Dev” value (100 mg/kg/d orally in 0.5% Methylcellulose) was 10.3 ± 0.7 days, the “Graft Survival, Mean ± Std Dev” value (200 mg/kg/d orally in 0.5% Methylcellulose) was 10.3 ± 0.7 days and the “Graft Survival, Mean ± Std Dev” value (300 mg/kg/d orally in 0.5% Methylcellulose) was 11.8 ± 1.1 days.
